From patent US20260199323A1, “LIGAND COMPOUNDS FOR E3 UBIQUITIN LIGASE, PROTEIN DEGRADERS DEVELOPED ON BASIS OF LIGAND COMPOUNDS, AND USES THEREOF” (GLUETACS THERAPEUTICS (SHANGHAI) CO., LTD., priority 2021, published 2026)
Read-outs that look alike come from different tables or passages of the source. Values belong to the compound of their own block, whether it stands above or below them.

What was measured:
[1] = tested on: CCRF-CEM; assay: CCK-8 tumor cell proliferation, CCRF-CEM; assay type: cell-based, Human; details: Homo sapiens; Table 19, IRAK4 inhibitor based; CCRF-CEM; read-out: IC50 inhibiting proliferation of tumor cells, CCRF-CEM
Method in brief: (§1)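 Proliferation was measured by CCK-8. Plated cells received compound 24 h later at ten 5-fold dilutions beginning at 10 μM.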

[2] = tested on: MV-4-11; assay: CCK-8 tumor cell proliferation, MV-4-11; assay type: cell-based, Human; details: Homo sapiens, MV4-11, MV-4-11, read-out: IC50 inhibiting proliferation of tumor cells, MV-4-11
Protocol: (§2) The tumor cells used herein were cultured in a cell culture medium listed in table 4 at 37° C. in an incubator with 5% CO2. Prior to experimentation, all cells used were correctly identified by STR profiling, and tested negative for mycoplasma through routine screenings.
(§3) IC50 values of the compounds of the present disclosure (including the compounds in Tables 1 and 3, and compounds of examples) were measured using the Meilun Cell Counting Kit-8 kit from Dalian Meilun Biotech Co., Ltd. Assay details are as follows: tumor cells were seeded in a 96-well plate at a density listed in Table 5. After 24 h, 100 μL of the inoculated cells were treated with 0.5 μL of the compounds of the present disclosure (including the compounds in Tables 1 and 3, and compounds of examples) at 10 different successively decreasing concentrations (starting at the highest concentration of 10 μM; 5-fold serial dilutions). After the cells were treated with the compounds of the present disclosure for a period of time, the cell viability detection reagent was added to the culture medium for cell viability assessment according to the instructions provided with the CCK-8 kit. […] The growth inhibition of the compounds of the present disclosure on cells was plotted by Prism Graphpad software, and the IC50 values of the compounds of the present disclosure were calculated therefrom.

[3] = tested on: SR; assay: CCK-8 tumor cell proliferation, SR; assay type: cell-based, Human; details: Homo sapiens; Table 15, ALK inhibitor based; SR; read-out: IC50 inhibiting proliferation of tumor cells, SR
Method in brief: as §1

[4] = tested on: Jurkat; assay: CCK-8 tumor cell proliferation, Jurkat; assay type: cell-based, Human; details: Homo sapiens, Table 23, compared to Comparative Example compounds, read-out: Inhibitory activity (IC50, nM) against tumor cell proliferation, Jurkat
Protocol: as §2, §3

[5] = tested on: MM.1R; assay: CCK-8 tumor cell proliferation, MM.1R; assay type: cell-based; details: read-out: Inhibitory activity (IC50, nM) against tumor cell proliferation, MM.1R
Protocol: as §2, §3

[6] = tested on: CAL-62; assay: CCK-8 tumor cell proliferation, CAL-62; assay type: cell-based, Human; details: Homo sapiens, CAL-62, read-out: Inhibitory activity (IC50, nM) against tumor cell proliferation, CAL-62
Method in brief: as §1

[7] = Table 19, IRAK4 inhibitor based
[8] = Table 23, compared to Comparative Example compounds

Structure (SMILES): COc1cc(N2CCN(Cc3cc4c(cc3F)C(=O)N(C3CCC(=O)NC3=O)C4)CC2)ccc1Nc1ncc(Cl)c(Nc2ccccc2P(C)(C)=O)n1 (stereo not shown) [GT-03777, 3-(5-((4-(4-((5-chloro-4-((2-(dimethylphosphoryl)phenyl)amino)pyrimidin-2-yl)amino)-3-methoxyphenyl)piperazin-1-yl)methyl)-6-fluoro-1-oxoisoindolin-2-yl)piperidine-2,6-dione]
IC50 ([2]; Table 15, ALK inhibitor based): 50 to 100 nM
IC50 [3]: < 50 nM

Structure (SMILES): CCc1cc2c(cc1N1CCC(N3CCN(Cc4ccc5c(c4F)CN(C4CCC(=O)NC4=O)C5=O)CC3)CC1)C(C)(C)c1[nH]c3cc(C#N)ccc3c1C2=O (stereo not shown) [GT-03758, 8-(4-(4-((2-(2,6-dioxopiperidin-3-yl)-4-fluoro-1-oxoisoindolin-5-yl)methyl)piperazin-1-yl)piperidin-1-yl)-9-ethyl-6,6-dimethyl-11-oxo-6,11-dihydro-5H-benzo[b]carbazole-3-carbonitrile]
IC50 ([2]; Table 15, ALK inhibitor based): 100 to 500 nM
IC50 [3]: < 50 nM

Structure (SMILES): CCc1cc2c(cc1N1CCC(N3CCN(Cc4ccc5c(c4)C(=O)N(C4CCC(=O)NC4=O)C5=O)CC3)CC1)C(C)(C)c1[nH]c3cc(C#N)ccc3c1C2=O (stereo not shown) [GT-03761, 8-(4-(4-((2-(2,6-dioxopiperidin-3-yl)-1,3-dioxoisoindolin-5-yl)methyl)piperazin-1-yl)piperidin-1-yl)-9-ethyl-6,6-dimethyl-11-oxo-6,11-dihydro-5H-benzo[b]carbazole-3-carbonitrile]
IC50 ([2]; Table 15, ALK inhibitor based): 1000 to 5000 nM
IC50 [3]: < 50 nM

Structure (SMILES): COc1cc(N2CCN(Cc3cc(F)c4c(c3)CN(C3CCC(=O)NC3=O)C4=O)CC2)ccc1Nc1ncc(Cl)c(Nc2ccccc2P(C)(C)=O)n1 (stereo not shown) [GT-03778, 3-(5-((4-(4-((5-chloro-4-((2-(dimethylphosphoryl)phenyl)amino)pyrimidin-2-yl)amino)-3-methoxyphenyl)piperazin-1-yl)methyl)-7-fluoro-1-oxoisoindolin-2-yl)piperidine-2,6-dione]
IC50 ([2]; Table 15, ALK inhibitor based): 100 to 500 nM
IC50 [3]: < 50 nM

Structure (SMILES): COc1cc(N2CCN(Cc3ccc4c(c3)C(=O)N(C3CCC(=O)NC3=O)C4=O)CC2)ccc1Nc1ncc(Cl)c(Nc2ccccc2P(C)(C)=O)n1 (stereo not shown) [GT-03780, 5-((4-(4-((5-chloro-4-((2-(dimethylphosphoryl)phenyl)amino)pyrimidin-2-yl)amino)-3-methoxyphenyl)piperazin-1-yl)methyl)-2-(2,6-dioxopiperidin-3-yl)isoindoline-1,3-dione]
IC50 ([2]; Table 15, ALK inhibitor based): 1000 to 5000 nM
IC50 [3]: 100 to 500 nM

Structure (SMILES): COc1cc(N2CCN(Cc3cccc4c3CN(C3CCC(=O)NC3=O)C4=O)CC2)ccc1Nc1ncc(Cl)c(Nc2ccccc2P(C)(C)=O)n1 (stereo not shown) [GT-03779, 3-(4-((4-(4-((5-chloro-4-((2-(dimethylphosphoryl)phenyl)amino)pyrimidin-2-yl)amino)-3-methoxyphenyl)piperazin-1-yl)methyl)-1-oxoisoindolin-2-yl)piperidine-2,6-dione]
IC50 ([2]; Table 15, ALK inhibitor based): 100 to 500 nM
IC50 [3]: < 50 nM

Structure (SMILES): COc1cc(N2CCN(Cc3ccc4c(c3)CN(C3CCC(=O)NC3=O)C4=O)CC2)ccc1Nc1ncc(Cl)c(Nc2ccccc2P(C)(C)=O)n1 (stereo not shown) [GT-03775, 3-(5-((4-(4-((5-chloro-4-((2-(dimethylphosphoryl)phenyl)amino)pyrimidin-2-yl)amino)-3-methoxyphenyl)piperazin-1-yl)methyl)-1-oxoisoindolin-2-yl)piperidine-2,6-dione]
IC50 ([2]; Table 15, ALK inhibitor based): 100 to 500 nM
IC50 [3]: < 50 nM

Structure (SMILES): COc1cc(N2CCN(Cc3ccc4c(c3F)CN(C3CCC(=O)NC3=O)C4=O)CC2)ccc1Nc1ncc(Cl)c(Nc2ccccc2P(C)(C)=O)n1 (stereo not shown) [GT-03776, 3-(5-((4-(4-((5-chloro-4-((2-(dimethylphosphoryl)phenyl)amino)pyrimidin-2-yl)amino)-3-methoxyphenyl)piperazin-1-yl)methyl)-4-fluoro-1-oxoisoindolin-2-yl)piperidine-2,6-dione]
IC50 ([2]; Table 15, ALK inhibitor based): 100 to 500 nM
IC50 [3]: < 50 nM

Second part, the compound after the results:

IC50 [1]: < 50 nM
IC50 [2, 7]: 50 to 100 nM
Structure (SMILES): Cc1cc(-c2nc(C(=O)Nc3cc4oc(N5CCN(Cc6cc(F)c7c(c6)CN(C6CCC(=O)NC6=O)C7=O)CC5)nc4nc3N3CC[C@@H](O)C3)co2)ccn1 (stereo partly drawn) [GT-03843, N-(2-(4-((2-(2,6-dioxopiperidin-3-yl)-7-fluoro-1-oxoisoindolin-5-yl)methyl)piperazin-1-yl)-5-((R)-3-hydroxypyrrolidin-1-yl)oxazolo[4,5-b]pyridin-6-yl)-2-(2-methylpyridin-4-yl)oxazole-4-carboxamide]

IC50 [2, 7]: 100 to 500 nM
Structure (SMILES): Cc1cc(-c2nc(C(=O)Nc3cc4oc(N5CCN(Cc6cccc7c6CN(C6CCC(=O)NC6=O)C7=O)CC5)nc4nc3N3CC[C@@H](O)C3)co2)ccn1 (stereo partly drawn) [GT-03844, N-(2-(4-((2-(2,6-dioxopiperidin-3-yl)-1-oxoisoindolin-4-yl)methyl)piperazin-1-yl)-5-((R)-3-hydroxypyrrolidin-1-yl)oxazolo[4,5-b]pyridin-6-yl)-2-(2-methylpyridin-4-yl)oxazole-4-carboxamide]

IC50 [4]: 100 to 500 nM
IC50 [5, 8]: 1000 to 5000 nM
IC50 [6, 8]: 1000 to 5000 nM
Structure (SMILES): CCc1cc2c(cc1N1CCC(N3CCN(CCc4ccc5c(c4)CN(C4CCC(=O)NC4=O)C5=O)CC3)CC1)C(C)(C)c1[nH]c3cc(C#N)ccc3c1C2=O (stereo not shown) [GT-04512, 8-(4-(4-(2-(2-(2,6-dioxopiperidin-3-yl)-1-oxoisoindolin-5-yl)ethyl)piperazin-1-yl)piperidin-1-yl)-9-ethyl-6,6-dimethyl-11-oxo-6,11-dihydro-5H-benzo[b]carbazole-3-carbonitrile]

IC50 [4]: 5000 to 10000 nM
IC50 ([5]; Table 23, given as number): > 10000 nM
IC50 ([6]; Table 23, given as number): > 10000 nM
Structure (SMILES): Nc1ncnc2c1c(-c1ccc(Oc3ccccc3)cc1)nn2C1CCN(CCCc2ccc3c(c2)CN(C2CCC(=O)NC2=O)C3=O)CC1 (stereo not shown) [GT-04565, 3-(5-(3-(4-(4-amino-3-(4-phenoxyphenyl)-1H-pyrazolo[3,4-d]pyrimidin-1-yl)piperidin-1-yl)propyl)-1-oxoisoindolin-2-yl)piperidine-2,6-dione]

IC50 [2, 7]: 500 to 1000 nM
Structure (SMILES): Cc1cc(-c2nc(C(=O)Nc3cc4oc(N5CCN(Cc6ccc7c(c6)C(=O)N(C6CCC(=O)NC6=O)C7=O)CC5)nc4nc3N3CC[C@@H](O)C3)co2)ccn1 (stereo partly drawn) [GT-03845, N-(2-(4-((2-(2,6-dioxopiperidin-3-yl)-1,3-dioxoisoindolin-5-yl)methyl)piperazin-1-yl)-5-((R)-3-hydroxypyrrolidin-1-yl)oxazolo[4,5-b]pyridin-6-yl)-2-(2-methylpyridin-4-yl)oxazole-4-carboxamide]

IC50 [2, 7]: 100 to 500 nM
Structure (SMILES): Cc1cc(-c2nc(C(=O)Nc3cc4oc(N5CCN(Cc6ccc7c(c6F)CN(C6CCC(=O)NC6=O)C7=O)CC5)nc4nc3N3CC[C@@H](O)C3)co2)ccn1 (stereo partly drawn) [GT-03841, N-(2-(4-((2-(2,6-dioxopiperidin-3-yl)-4-fluoro-1-oxoisoindolin-5-yl)methyl)piperazin-1-yl)-5-((R)-3-hydroxypyrrolidin-1-yl)oxazolo[4,5-b]pyridin-6-yl)-2-(2-methylpyridin-4-yl)oxazole-4-carboxamide]

IC50 [4]: 100 to 500 nM
IC50 [5, 8]: 1000 to 5000 nM
IC50 [6, 8]: 1000 to 5000 nM
Structure (SMILES): O=C1CCC(N2Cc3cc(CCCN4CCN(c5ccc([C@@H]6c7ccc(O)cc7CC[C@@H]6c6ccccc6)cc5)CC4)ccc3C2=O)C(=O)N1 (stereo partly drawn) [GT-04564, 3-(5-(3-(4-(4-((1R,2S)-6-hydroxy-2-phenyl-1,2,3,4-tetrahydronaphthalen-1-yl)phenyl)piperazin-1-yl)propyl)-1-oxoisoindolin-2-yl)piperidine-2,6-dione]

IC50 [2, 7]: 100 to 500 nM
Structure (SMILES): Cc1cc(-c2nc(C(=O)Nc3cc4oc(N5CCN(Cc6cc7c(cc6F)C(=O)N(C6CCC(=O)NC6=O)C7)CC5)nc4nc3N3CC[C@@H](O)C3)co2)ccn1 (stereo partly drawn) [GT-03842, N-(2-(4-((2-(2,6-dioxopiperidin-3-yl)-6-fluoro-1-oxoisoindolin-5-yl)methyl)piperazin-1-yl)-5-((R)-3-hydroxypyrrolidin-1-yl)oxazolo[4,5-b]pyridin-6-yl)-2-(2-methylpyridin-4-yl)oxazole-4-carboxamide]

IC50 [4]: 1000 to 5000 nM
IC50 [5, 8]: < 50 nM
IC50 [6, 8]: 5000 to 10000 nM
Structure (SMILES): Nc1ncnc2c1c(-c1ccc(Oc3ccccc3)cc1)nn2C1CCN(CCc2ccc3c(c2)CN(C2CCC(=O)NC2=O)C3=O)CC1 (stereo not shown) [GT-04563, 3-(5-(2-(4-(4-amino-3-(4-phenoxyphenyl)-1H-pyrazolo[3,4-d]pyrimidin-1-yl)piperidin-1-yl)ethyl)-1-oxoisoindolin-2-yl)piperidine-2,6-dione]
